How the values were obtained:
Assay type in all cases: in vivo
[1] = system: Puccinia triticina (PUCCRT); experiment: Foliar fungicidal test on wheat, 1 day protectant, Puccinia triticina; conditions: 100 ppm foliar spray on wheat; inoculated one day after chemical application; banded assessment
Experimental: (§1) This Example illustrates the fungicidal properties of the compounds of formula (I). The compounds were tested against a variety of foliar fungal diseases of plants. The technique employed was as follows. Plants were grown on an artificial, cellulose based growing medium. The test compounds were individually diluted in reverse osmosis water to a final concentration of 100 ppm in water (that is, 1 mg of compound in a final volume of 10 ml) immediately before use. TWEEN 20 (at a final concentration of 0.05% by volume) was added with the water to improve retention of the spray deposit. TWEEN is a registered trade mark. The compounds were applied to the foliage of the test plants by spraying the plant to maximum droplet retention. […] After chemical application and inoculation, the plants were incubated under high humidity conditions (except those inoculated with Blumeria graminis f.sp. tritici) and then put into an appropriate environment to allow infection to proceed until the disease was ready for assessment. […] However, each individual disease was assessed after the same time period for all compounds. […] The disease level present (the percentage leaf area covered by actively sporulating disease) was assessed visually. For each treatment, the assessed values for all its replicates were meaned to provide mean disease values. Untreated control plants were assessed in the same manner. […]

[2] = system: Stagonospora Nodorum (LEPTNO); experiment: Foliar fungicidal test on wheat, 1 day protectant, Stagonospora Nodorum; conditions: 100 ppm foliar spray on wheat; inoculated one day after chemical application; banded assessment
Experimental: as §1

[3] = system: Blumeria graminis f.sp. tritici (ERYSGT); experiment: Foliar fungicidal test on wheat, 6 hour protectant, Blumeria graminis f.sp. tritici; conditions: 100 ppm foliar spray on wheat; inoculated 6 hours after chemical application; banded assessment
Experimental: as §1

Compound: CO[C@@H]1CO[C@H]2[C@@H](O)[C@H](c3c[nH]c(=O)[nH]c3=O)O[C@@H]2[C@@H]1NC(N)=O (stereo in doubt) [(II), Malayamycin A]
- PRCO (Percentage Disease Reduction from Control) PUCCRT 1 day Protectant [1]: 100
- PRCO (Percentage Disease Reduction from Control) LEPTNO 1 day Protectant [2]: 100
- PRCO (Percentage Disease Reduction from Control) ERYSGT 6 hour Protectant [3]: 100

Compound: NC(=O)N[C@H]1[C@H]2O[C@@H](c3c[nH]c(=O)[nH]c3=O)[C@H](O)[C@@H]2OC[C@H]1O (stereo in doubt) [(III), Desmethylmalayamycin A]
- PRCO (Percentage Disease Reduction from Control) PUCCRT 1 day Protectant [1]: 100
- PRCO (Percentage Disease Reduction from Control) LEPTNO 1 day Protectant [2]: 99
- PRCO (Percentage Disease Reduction from Control) ERYSGT 6 hour Protectant [3]: 0
